Source: US20110212899A1, “Corneal Neuritogenesis Promoter Containing Pacap and Its Derivative” (priority 2004, published 2011)
Where no end group is shown, it is not given here.

Assays:
Type in all cases: cell-based
[1] = tested on: excised rabbit lacrimal gland; experiment: Promoting effect on protein secretion from an excised lacrimal gland (1) (Test Example 3)
Experimental: A lacrimal gland was excised from a rabbit and then treated with PACAP27 or peptide 17. Pharmacological effects of PACAP27 and peptide 17 on an increase in the protein secretion amount were examined.
(a) Purified water was added to sodium chloride (137.92 g), potassium chloride (7.01 g), calcium chloride dihydrate (3.53 g) and magnesium chloride hexahydrate (1.2 g) so that the total volume was 1000 mL (solution 1). Purified water was added to potassium dihydrogen phosphate (8.17 g) so that the total volume was 500 mL (solution 2). The solution 1 (50 mL) and the solution 2 (10 mL) were added to 900 mL of purified water, and in the resulting solution were dissolved glucose (2.07 g) and sodium hydrogen carbonate (2.1 g). The total volume of the resulting solution was adjusted to 1000 mL (pH about 7.4), which was used as a culture solution. A mixed gas of 95% oxygen and 5% carbon dioxide was allowed to pass through the culture solution.
(b) PACAP27 or peptide 17 was dissolved in the culture solution at a concentration of 10^−7 M, which was used as a test substance solution. Carbachol (Nacalai Tesque, Inc.), which has muscarinic agonist activity, was dissolved in the culture solution at a concentration of 10^−4 M, which was used as a control of the drugs (the carbachol-addition group). […]
(a) The section sample in a stationary state was incubated at 37° C. for 20 minutes in 0.5 mL of a fresh culture solution. […] The amount of protein in the culture solution was determined by using a protein staining reagent (DC Protein Assay Reagent, Bio Rad), and was converted into the protein secretion amount per 1 mg of the wet sample. […]
(b) The culture solution of the section sample after incubation obtained in (a) was replaced by 0.5 mL of the test substance solution. […] The protein amount in the collected solution was determined by using the protein staining reagent. In the same way, as a control group, the section sample was incubated in the culture solution which was replaced by a fresh culture solution and the protein amount in the culture solution was determined.

[2] = tested on: excised rabbit lacrimal gland; experiment: Promoting effect on protein secretion from an excised lacrimal gland (2) (Test Example 5); settings: carbachol 10^−4 M, incubated 60 minutes; p<0.05
Experimental: A lacrimal gland was excised from a rabbit and incubated in a solution containing PACAP27 or peptide 24, and changes in the amount of secreted protein were examined as lacrimal gland stimulating activity.
Japanese white rabbits with a body weight of 1.5 to 2.0 kg purchased from Fukusaki Rabbit warren were used. The animals were each put in separate cages placed in a room wherein a temperature of 23±3° C. and a humidity of 55±10% were kept and a light was on for 12 hours per day (lighting at 8:00 and lights-out at 20:00), and raised after arrival until the final day of the test. The animals were given 100 g of solid feed (Labo R Stock, Nosan Corporation) per day, and could freely have tap water.
PACAP27 and peptide 24 were used as test substances. Test substance solutions were prepared as follows. […]
The section sample in a stationary state was incubated in 0.5 mL of a fresh incubation solution at 37° C. for 20 minutes under a mixed gas atmosphere of 95% oxygen and 5% carbon dioxide. After completion of the incubation, the incubation solution was collected, and the protein amount in the solution was determined by using a protein staining reagent (DC Protein Assay Reagent, Bio Rad). […] The incubation solution was collected, and the protein amount in the incubation solution was determined. […]

[3] = tested on: cultured rabbit trigeminal nerve cells; experiment: Promoting effect on neuritogenesis in cultured rabbit trigeminal nerve cells (1) (Test Example 1); settings: final concentration 1 μM, cultured for 48 hours; control group 24.1%; p<0.001 vs non-addition group
Source text: Japanese white rabbits (2 to 3 days old) purchased from Kitayama Labes Co., Ltd. were used.
Rabbit trigeminal nerve cells were isolated according to a method reported by Chan et al. (Kwan Y. Chan and Richard H. Haschke, Exp. Eye Res. 41: 687-699, 1985). The rabbit was subjected to cardiac perfusion with physiological saline under ether anesthesia. A trigeminal ganglion was excised from the rabbit, and then dispersed in a nerve dispersion liquid (Sumitomo Bakelite Co., Ltd.) to prepare trigeminal nerve cells. The trigeminal nerve cells were cultured in Neurobasal medium (Invitrogen Corp) supplemented with B27 Supplement (Invitrogen Corp; final concentration: 2% v/v) and L-glutamine (Invitrogen Corp; final concentration: 1 mM) under 5% CO2 and 95% air at a humidity of 100% and a temperature of 37° C. […]
For evaluating neuritogenesis in the cultured rabbit trigeminal nerve cells, the lengths of the longest neurite and the major axis of the cell body in the stained cell images scanned into the computer were measured using image analysis software (Image-Pro Plus ver. 4.0, Planetron, Inc.) The cells in 3 wells for each group were measured. […] The proportion (%) of the neurite forming cells in the total cell number was calculated (Otori, Y., Wei, J. Y., Barnstable, C. J., Invest. Opthalmol. Vis. Sic., (1998)39, 972-981).

Compound | protein secretion rate of excised lacrimal gland ([1]; carbachol 10^−4 M (control of the drugs)) | protein secretion rate of excised lacrimal gland compared with control group [2] | proportion (%) of the neurite forming cells in the total cell number [3] | duration of the action of the drug compared with the carbachol-addition group ([1]; 10^−7 M vs carbachol 10^−4 M) | protein secretion rate of excised lacrimal gland ([1]; 10^−7 M, at 20 minutes after initiation of the treatment and thereafter, p<0.05 vs control)
C[N+](C)(C)CCOC(N)=O [carbachol, Carbachol, reference compound] | significant increase | significant increase |  |  | 
His-Ser-Asp-Ala-Ile-Phe-Thr-Asp-Ser-Tyr-Ser-Arg-Tyr-Arg-Arg-Gln-Leu-Ala-Val-Arg-Arg-Tyr-Leu-Ala-Ala-Val-Leu-Gly-Arg-Arg-OH (HSDAIFTDSYSRYRRQLAVRRYLAAVLGRR-OH) [Peptide 17] |  |  | 54.1% | lasted longer | significantly increased
